Test [1] has as its system SMN2 Full reporter. Description: SMN2 Full reporter gene assay (luciferase) in NSC34 stable line. The note with it: NSC-34, Biological Example 2, 24 hours, BrightGlo, read-out: SMN Activity (EC50). The class given is cell-based. An excerpt:
SMN2 Full Reporter Construct:
pSMN2 Splicing Luciferase reporter was constructed according to Zhang et al., (An in vivo reporter system for measuring increased inclusion of exon 7 in SMN2 mRNA: potential therapy of SMA. Gene Ther. 2001 October; 8(20):1532-8) via overlapping PCR. The final PCR fragment containing Exon6-Intron6-Exon7 (with a C insertion before 49T)-Intron7-Exon8-Luciferase was inserted to BamHI and NotI site of pCAG-IRESblast expression vector (Chen et al., Establishment and Maintenance of Genomic Methylation Patterns in Mouse Embryonic Stem Cells by Dnmt3a and Dnmt3b. Mol Cell Biol. 2003 August; 23(16):5594-605).
Human SMN2 exon1-exon6 cDNA were amplified by PCR (Forward primer: […]; reverse primer: […]), and Exon6-Intron6 (Forward primer: […]; reverse primer: […]) were fused by overlap PCR to create Exon1-Intron6 fragment, and was inserted into pSMN2 splicing Luciferase reporter via BamHI and HindIII sites to create pSMN2 exon1-6 splicing reporter. SMN2 promoter 5.1 kb fragment was amplified from human genomic DNA by PCR (Forward primer: […]; reverse primer: […]), and inserted between MluI site and BamHI site (Blunted using DNA blunting kit, Takara, Cat #6025) of pSMN2 exon1-6 splicing reporter to replace chicken β-actin promoter and the human cytomegalovirus immediate early enhancer, to finalize the pSMN2-Full-reporter.
SMN2 Full Reporter Stable Clone in NSC34 Cells:
pSMN2-Full reporter was stably transfected into NSC34 cells using Lipofectamine 2000, which were subsequently selected in blasticidin-containing medium for two weeks. Blasticidin-resistant colonies were screened by Luciferase signal and response to SAHA as well as by RT-PCR for alternative splicing of Exon7.
NSC34 SMN2 Full reporter stable line was cultured in DMEM (Invitrogen, Cat:11965)+10% FBS+7 μg/ml Blasticidin. Cells in culture media without Blasticidin were seeded into a 384-well plate at a density of 6000 cells/well and treated with compounds for 24 hours. Luciferase signal was assessed by BrightGlo assay. Eequal volume of BrightGlo reagent (Promega, Cat #E2620) was added to the cells and incubated for 10 minutes at room temperature. Luminescent signal was read in either BioTek or Envision plate reader.
Reporter gene assay conditions: compound concentration range 3 nM-10 uM.

The test system of test [2] is SMN protein. As to the kind of experiment: cellular SMN ELISA (SMN protein elevation) in myoblast cell line from SMNdelta7 mouse model. It is filed as cell-based. A digest of the protocol: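 SMNdelta7 mouse myoblasts were treated with compounds for 24 h (20 nM–10 uM or 100 pM–10 uM), lysed in modified RIPA buffer, and SMN quantified by sandwich ELISA with HRP/TMB read at 450 nm. Values are fold activation over DMSO control and EC50.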

Where [3] appears, read: Biological Example 1, SMN ELISA, SMNdelta7 mouse myoblasts, 24 hours compound treatment.
Where [4] appears, read: Biological Example 1, SMN ELISA, SMNdelta7 mouse myoblasts, 24 hours compound treatment, read-out: SMN Activity (EC50).

Where two headings read alike, the source gives them in different places.

Turning to `CCCc1cc2cc(O)c(-c3ccc(OC4CC(C)(C)NC(C)(C)C4)nn3)cc2cn1` [Example 36-5, 3-propyl-7-(6-((2,2,6,6-tetramethylpiperidin-4-yl)oxy)-pyridazin-3-yl)isoquinolin-6-ol], the EC50 in test [1] was found to be 580 nM.

For the compound `CN(c1ccc(-c2cc3c(N)nccc3cc2O)nn1)C1CC(C)(C)NC(C)(C)C1` [Example 31-1, 1-amino-7-(6-(methyl(2,2,6,6-tetramethylpiperidin-4-yl)amino)pyridazin-3-yl)isoquinolin-6-ol], in test [1], the EC50 was 25 nM.

Regarding `CC(C)c1cc2cc(O)c(-c3ccc(N(C)C4CC(C)(C)NC(C)(C)C4)nn3)cc2cn1` [Example 36-4, 3-isopropyl-7-(6-(methyl(2,2,6,6-tetramethyl-piperidin-4-yl)amino)pyridazin-3-yl)isoquinolin-6-ol], the EC50 in test [1] worked out at 190 nM.

Consider `CN(c1ccc(-c2cc3c(=O)n(C)c(=O)n(C)c3cc2O)nn1)C1CC(C)(C)NC(C)(C)C1` [Example 32-1, 7-hydroxy-1,3-dimethyl-6-(6-(methyl(2,2,6,6-tetramethylpiperidin-4-yl)amino)pyridazin-3-yl)quinazoline-2,4(1H,3H)-dione], for which, in test [1], the EC50 amounted to 133 nM.

As to `CC(C)c1cc2cc(O)c(-c3ccc(OC4CC(C)(C)NC(C)(C)C4)nn3)cc2cn1` [Example 36-6, 3-isopropyl-7-(6-((2,2,6,6-tetramethylpiperidin-4-yl)oxy)-pyridazin-3-yl)isoquinolin-6-ol], the EC50 in test [1] came out at 640 nM.

As for `CN(c1ccc(-c2cc3cnn(C)c3cc2O)nn1)C1CC(C)(C)NC(C)(C)C1` [Example 34-2, 1-methyl-5-(6-(methyl(2,2,6,6-tetramethylpiperidin-4-yl)amino)pyridazin-3-yl)-1H-indazol-6-ol], in test [1], the EC50 is 220 nM.

`CN(c1ccc(-c2cc3[nH]c(=O)oc3cc2O)nn1)C1CC(C)(C)NC(C)(C)C1` [Example 33-1, 6-hydroxy-5-(6-(methyl(2,2,6,6-tetramethylpiperidin-4-yl)amino)pyridazin-3-yl)benzo[d]oxazol-2(3H)-one]: the EC50 in test [1] turned out to be 3000 nM.

On to `Cc1cc2cc(O)c(-c3ccc(N(C)C4CC(C)(C)NC(C)(C)C4)nn3)cc2c(C)n1` [Example 29-3, 1,3-dimethyl-7-(6-(methyl(2,2,6,6-tetramethylpiperidin-4-yl)amino)pyridazin-3-yl)isoquinolin-6-ol], for which, in test [1], the EC50 was 40 nM.

As to `Cc1cc2cc(-c3ccc(N(C)C4CC(C)(C)NC(C)(C)C4)nn3)c(O)cc2c(C#N)n1` [Example 30-1, 7-hydroxy-3-methyl-6-(6-(methyl(2,2,6,6-tetramethylpiperidin-4-yl)amino)pyridazin-3-yl)isoquinoline-1-carbonitrile], in test [1], the EC50 was found to be 30 nM.

With `CCn1ccc2cc(O)c(-c3ccc(OC4CC(C)(C)NC(C)(C)C4)nn3)cc2c1=O` [Example 35-2, 2-ethyl-6-hydroxy-7-(6-((2,2,6,6-tetramethylpiperidin-4-yl)oxy)pyridazin-3-yl)isoquinolin-1(2H)-one], the EC50 in test [1] is 363 nM.

As for `CN(c1ccc(-c2cc3cn(C)nc3cc2O)nn1)C1CC(C)(C)NC(C)(C)C1` [Example 34-1, 2-methyl-5-(6-(methyl(2,2,6,6-tetramethylpiperidin-4-yl)amino)pyridazin-3-yl)-2H-indazol-6-ol], the 50% effective concentration (EC50) in test [1] came to 150 nM.

Take `CN(c1ccc(-c2cc3cnc(C4CC4)cc3cc2O)nn1)C1CC(C)(C)NC(C)(C)C1` [Example 36-3, 3-cyclopropyl-7-(6-(methyl(2,2,6,6-tetramethyl-piperidin-4-yl)amino)pyridazin-3-yl)isoquinolin-6-ol]: the EC50 in test [1] is 30 nM.

With `Cc1cc(N(C)C)c2cc(-c3ccc(N(C)C4CC(C)(C)NC(C)(C)C4)nn3)c(O)cc2n1` [Example 10-4, 4-(Dimethylamino)-2-methyl-6-(6-(methyl(2,2,6,6-tetramethylpiperidin-4-yl)amino)pyridazin-3-yl)quinolin-7-ol], the “SMN Activity (fold activation over DMSO control)” value in test [2] (setting [3]) is given as 2.7 fold. Besides, the concentration giving a half-maximal response (EC50) in test [2] (setting [4]) stood at 12 nM.

Regarding `CN(c1ccc(-c2cc3c(C4CC4)nccc3cc2O)nn1)C1CC(C)(C)NC(C)(C)C1` [Example 3-5, 1-cyclopropyl-7-(6-(methyl(2,2,6,6-tetramethylpiperidin-4-yl)amino)pyridazin-3-yl)isoquinolin-6-ol], in test [2] (setting [3]), the “SMN Activity (fold activation over DMSO control)” value was determined as 2.54 fold. The EC50 in test [2] (setting [4]) turned out to be 14 nM.

For the compound `CN(c1ccc(-c2cc3cccnc3cc2O)nn1)C1CC(C)(C)NC(C)(C)C1` [Example 1-1, 6-(6-(Methyl(2,2,6,6-tetramethylpiperidin-4-yl)amino)pyridazin-3-yl)quinolin-7-ol], the “SMN Activity (fold activation over DMSO control)” value in test [2] (setting [3]) stood at 2.9 fold. Besides, the EC50 in test [2] (setting [4]) is 20 nM; in test [2] (comparison of unsubstituted, ortho-hydroxy and ortho-alkoxy pyridazines, as in Biological Example 1, read-out: SMN ELISA EC50), 20 nM. This compound also returned a Fold activation in test [2] (comparison of unsubstituted, ortho-hydroxy and ortho-alkoxy pyridazines, as in Biological Example 1) of 2.9.

For the compound `CN(c1ccc(-c2cc3cccnc3cc2O)nn1)C1CC(C)(C)N(C)C(C)(C)C1` [Example 1-2, 6-(6-(methyl(1,2,2,6,6-pentamethylpiperidin-4-yl)amino)pyridazin-3-yl)quinolin-7-ol], the “SMN Activity (fold activation over DMSO control)” value in test [2] (setting [3]) is listed as 2.4 fold. Besides, in test [2] (setting [4]), the EC50 amounted to 340 nM.

As to `CN(c1ccc(-c2cc3cc(C#N)cnc3cc2O)nn1)C1CC(C)(C)NC(C)(C)C1` [Example 7-3, 7-hydroxy-6-(6-(methyl(2,2,6,6-tetramethylpiperidin-4-yl)amino)pyridazin-3-yl)quinoline-3-carbonitrile], the “SMN Activity (fold activation over DMSO control)” value in test [2] (setting [3]) is 3.1 fold. Further, the EC50 in test [2] (setting [4]) was 8 nM.

Turning to `Cc1nccc2cc(-c3ccc(N(C)C4CC(C)(C)NC(C)(C)C4)nn3)c(O)cc12` [Example 29-1, 1-methyl-6-(6-(methyl(2,2,6,6-tetramethylpiperidin-4-yl)amino)pyridazin-3-yl)isoquinolin-7-ol], the “SMN Activity (fold activation over DMSO control)” value in test [2] (setting [3]) was 2.96 fold. Besides, the 50% effective concentration (EC50) in test [2] (setting [4]) came out at 14 nM.

In the case of `CN(c1ccc(-c2cc3nc(C#N)ccc3cc2O)nn1)C1CC(C)(C)NC(C)(C)C1` [Example 26-3, 6-hydroxy-7-(6-(methyl(2,2,6,6-tetramethylpiperidin-4-yl)amino)pyridazin-3-yl)quinoline-2-carbonitrile], the “SMN Activity (fold activation over DMSO control)” value in test [2] (setting [3]) is 3.47 fold. Besides, the EC50 in test [2] (setting [4]) is 6 nM.

These data come from US11672799B2, “1,4-disubstituted pyridazine quinolne analogs there of and methods for treating SMN-deficiency-related conditions” (Novartis AG, priority 2013, dated 2023).
